Data: the supplement of paper PMC10307832

Assays:
Assay in all cases: relative viability (nuclei count vs DMSO), 5 days (fraction); higher = more cells survive
[1] = compound: Cn1cc(-c2cnn3c(N)c(Br)c([C@@H]4CCCNC4)nc23)cn1 + C[C@@H](Oc1cc(-c2cnn(C3CCNCC3)c2)cnc1N)c1c(Cl)ccc(F)c1Cl [Crizotinib] (partner 1 µM)
Summary of the method: (§1)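 Each reported value is a median over duplicate plates. It expresses relative viability: treated-well nuclei count divided by vehicle-well nuclei count. Lung cancer cell lines in 1536-well plates were dosed by pin tool a day after seeding, alone with one drug or with a fixed anchor-drug dose plus five library-drug doses (not always all listed) in √10 steps, and nuclei were counted after 5 days.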

[2] = compound: Cn1cc(-c2cnn3c(N)c(Br)c([C@@H]4CCCNC4)nc23)cn1 + N=C(N)NC(=N)NCCc1ccccc1 [Phenformin] (partner 250 µM)
Summary of the method: as §1

[3] = compound: Cn1cc(-c2cnn3c(N)c(Br)c([C@@H]4CCCNC4)nc23)cn1 + CC1(C)CCC(c2ccc(Cl)cc2)=C(CN2CCN(c3ccc(C(=O)NS(=O)(=O)c4ccc(N[C@H](CCN5CCOCC5)CSc5ccccc5)c(S(=O)(=O)C(F)(F)F)c4)cc3)CC2)C1 [Navitoclax] (partner 0.5 µM)
Summary of the method: as §1

[4] = compound: Cn1cc(-c2cnn3c(N)c(Br)c([C@@H]4CCCNC4)nc23)cn1 + Nc1ncn([C@H]2C[C@H](O)[C@@H](CO)O2)c(=O)n1 [Decitabine] (partner 2 µM)
Summary of the method: as §1

| Cell Line | relative viability ([1]; first compound 0.05 µM) | relative viability ([1]; first compound 0.1581 µM) | relative viability ([1]; first compound 0.5 µM) | relative viability ([1]; first compound 1.581 µM) | relative viability ([1]; first compound 5 µM) | relative viability ([2]; first compound 0.05 µM) | relative viability ([2]; first compound 0.1581 µM) | relative viability ([2]; first compound 0.5 µM) | relative viability ([2]; first compound 1.581 µM) | relative viability ([2]; first compound 5 µM) | relative viability ([3]; first compound 0.05 µM) | relative viability ([3]; first compound 0.1581 µM) | relative viability ([3]; first compound 0.5 µM) | relative viability ([3]; first compound 1.581 µM) | relative viability ([3]; first compound 5 µM) | relative viability ([4]; first compound 0.05 µM) | relative viability ([4]; first compound 0.1581 µM) | relative viability ([4]; first compound 0.5 µM) | relative viability ([4]; first compound 1.581 µM) | relative viability ([4]; first compound 5 µM) |
| --- | --- | --- | --- | --- | --- | --- | --- | --- | --- | --- | --- | --- | --- | --- | --- | --- | --- | --- | --- | --- |
| NCI-H2085 | 0.846 | 1.01 | 0.733 | 0.794 | 0.646 | 0.692 | 0.746 | 0.737 | 0.626 | 0.516 | 1.3 | 1.13 | 1.18 | 1.09 | 0.943 | 0.532 | 0.594 | 0.551 | 0.545 | 0.624 |
| NCI-H2087 | 1.01 | 1.27 | 0.939 | 0.983 | 0.954 | 0.47 | 0.479 | 0.483 | 0.485 | 0.507 | 1.02 | 1.14 | 1.04 | 1.05 | 0.948 | 0.258 | 0.25 | 0.231 | 0.331 | 0.347 |
| NCI-H2126 | 1.1 | 1.09 | 1.07 | 0.932 | 1.03 | 0.492 | 0.543 | 0.51 | 0.491 | 0.47 | 0.915 | 0.883 | 0.861 | 0.804 | 0.863 | 0.544 | 0.581 | 0.563 | 0.526 | 0.632 |
| NCI-H2170 | 1.19 | 1.21 | 1.19 | 1.16 | 1.12 | 0.415 | 0.441 | 0.429 | 0.429 | 0.429 | 0.584 | 0.554 | 0.453 | 0.527 | 0.713 | 0.503 | 0.491 | 0.459 | 0.473 | 0.516 |
| NCI-H2347 | 0.63 | 0.588 | 0.788 | 0.668 | 0.637 | 0.338 | 0.396 | 0.406 | 0.449 | 0.337 | 0.742 | 0.818 | 0.735 | 0.576 | 0.678 | 0.611 | 0.649 | 0.637 | 0.662 | 0.621 |
| NCI-H2405 | 0.884 | 0.849 | 0.794 | 0.765 | 0.611 | 0.384 | 0.522 | 0.398 | 0.363 | 0.318 | 0.815 | 0.976 | 0.904 | 0.867 | 0.624 | 0.747 | 0.819 | 0.776 | 0.71 | 0.713 |
| NCI-H3122 | 0.305 | 0.275 | 0.255 | 0.273 | 0.263 | 0.374 | 0.62 | 0.383 | 0.366 | 0.383 | 1.06 | 1.05 | 1.05 | 1.03 | 1.11 | 0.427 | 0.454 | 0.329 | 0.413 | 0.511 |
| PC-3 [JPC-3] | 1 | 1.01 | 1.02 | 0.835 | 1.12 | 0.444 | 0.476 | 0.443 | 0.448 | 0.455 | 0.75 | 0.899 | 0.735 | 0.832 | 0.899 | 0.759 | 0.86 |  | 0.808 | 0.853 |
| PC-14 | 0.95 | 1.06 | 1.01 | 0.83 | 0.386 | 0.515 | 0.429 | 0.668 | 0.388 | 0.211 | 1.06 | 1.14 | 0.924 | 0.69 | 0.444 | 0.237 | 0.2 | 0.206 | 0.186 | 0.123 |
| RERF-LC-KJ | 0.828 | 0.958 | 0.775 | 0.788 | 0.8 | 0.41 | 0.46 | 0.41 | 0.408 | 0.412 | 1.2 | 0.927 | 0.884 | 0.707 | 0.678 | 0.822 | 0.85 | 0.636 | 0.549 | 0.628 |
| SK-LU-1 | 0.877 |  | 0.483 | 0.33 | 0.264 | 0.515 | 0.426 | 0.299 | 0.254 | 0.184 | 0.717 |  | 0.254 | 0.188 | 0.186 | 0.788 | 0.586 | 0.537 | 0.363 | 0.255 |
| SK-MES-1 | 1.07 | 1.11 | 0.918 | 0.934 | 0.366 | 0.664 | 0.735 | 0.663 | 0.419 | 0.188 | 1.29 | 1.25 | 1.11 | 1.02 | 0.352 | 0.356 | 0.413 | 0.336 | 0.355 | 0.204 |
| SW 1573 | 0.794 | 1.07 | 0.9 | 0.747 | 0.73 | 0.388 | 0.381 | 0.325 | 0.215 | 0.219 | 0.976 | 1.07 | 1.08 | 0.853 | 1.07 | 0.567 | 0.498 | 0.455 | 0.462 | 0.517 |
| UMC-11 | 0.736 | 0.504 | 0.623 | 0.392 | 0.262 | 0.337 | 0.309 | 0.32 | 0.305 | 0.274 | 0.316 | 0.268 | 0.298 | 0.271 | 0.229 | 0.692 | 0.536 | 0.689 | 0.492 | 0.373 |
